Data on 33 compounds can be found in patent US12492210B2, “Tricyclic compounds and their use” (HUTCHISON MEDIPHARMA LIMITED, priority 2019, dated 2025).

The target in one experiment is T1, MAPK1(ERK2) enzyme (Homo sapiens, UniProt P28482).
T1 construct: purchased Invitrogen PV3313
The experiment is described as follows: Z-Lyte Kinase Assay of ERK2. The class given is biochemical. The conditions noted are these: read-out: Example 18 IC50. As for the experimental part:
Example 18: Z-Lyte Kinase Assay of ERK2
1. Materials and Reagents:
2. Reaction Steps: Plate Map
3. Solution Preparation • 1) 1.33× Kinase Buffer: Dilute 5× Kinase Buffer to 1.33× with ddH2O • 2) 4× Test Compounds: Serially dilute the test compounds to 4 folds of the concentrations desired, keeping the DMSO concentration at 8%. The final concentrations are 1, 0.33, 0.11, 0.037, 0.012, 0.004, 0.0014, 0.00046 μM, and the final concentration of DMSO is 2%. • 3) Kinase/Peptide Mixture (P/K solution): Prepare Kinase/Peptide Mixture by diluting the kinase to 0.6 μg/ml and the Z-LYTE™ Ser/Thr3 peptide to 4 μM in 1.33× Kinase Buffer. Mix gently by pipetting. • 4) Phospho-peptide Solution (PP solution): Add 0.4 μl of Z-LYTE™ Ser/Thr3 Phospho-peptide to 99.6 μl of 1.33× Kinase Buffer. • 5) ATP Solution: Prepare ATP Solution by diluting the 10 mM of ATP in 1.33× Kinase Buffer to 100 μM. • 6) Development Solution: Dilute Development Reagent A with Development Buffer as 1:1024. 4. Reaction • 1) Kinase reaction (10 μl of Volume) • a. In a 384-well plate, add 2.5 μl of 4× test Cpds to each well except C1, C2, C3 wells Add 2.5 μl of 8% DMSO to C1, C2, C3 wells • b. Put the plate on ice • c. Add 5 μl of P/K mixture to each test Cpd wells and C1, C2 wells • d. Add 5 μl of PP Solution to C3 well • e. Add 2.5 μl of 1.33× kinase buffer to C1 and C3 wells • f. Add 2.5 μl of 4×ATP Solution to each test Cpd wells and C2 well, respectively. Shake the plate for 30 Sec and centrifuge (1500 rpm, 1 min) • g. Seal the plate to protect from the light and incubate the plate for 1 hour at RT (25-30° C.) • 2) Development reaction • a. Add 5 μl of the Development solution to all wells • b. Shake the plate for 30 sec and centrifuge (1500 rpm, 1 min) • c. Seal the plate to protect from the light and incubate the plate for 1 hour at RT (25-30° C.) • 3) Stop and read • a. Add 5 μl of the Stop reagent to all wells • b. Shake the plate for 30 sec and centrifuge (1500 rpm, 1 min) • c. Measure the value of coumarin (Ex400 nm, Em445 nm) and fluorescein (Ex400 nm, Em520 nm), respectively. 5. Data Analysis Emission Ratio(ER)=Coumarin Emission (445 nm)/Fluorescein Emission (520 nm) % Phosphorylation=1−[ER×C3520nm−C3445nm]/[(C1445nm−C3445nm)+ER×(C3520nm−C1520nm)] Inhibition rate (IR)=1−% Photest Cpd% PhoC2 6. IC50 Value: determine IC50 with add-in software for Microsoft Excel, XLfit™ (version 2.0) from ID Business Solutions (Guildford, UK)

Experiment [1] has as its system p-RSK (Thr359) in colo205 cells. Kind of experiment: p-RSK (Thr359) Acumen Assay in Colo205. The conditions noted are these: Homo sapiens, COLO 205, 1 hour compound incubation, read-out: Example 19 IC50. The class given is cell-based. As for the experimental part: Example 19: p-RSK (Thr359) Acumen Assay in Colo205
• Phospho-p90RSK (Thr359) (D1E9) Rabbit mAb: cell signal, #8753 • Alexa Fluor® 488 donkey anti-rabbit IgG: invitrogen, #A-21206 • Propidium Iodide: Sigma, #p4170 • 4% Paraformaldehyde: SCRC, #DF021 • 10% Triton X-100: PIERCE, #28314 • 96-well plate (black with clear bottom): BD, #354640 • Acumen® eX3 (A Multilaser Microplate Cytometer For Enhanced High Content Screening): TTP LabTech 3. Acumen Assay Protocol • Seed 4000 cells in 100 μl 10% FBS/well into 96-well plate, incubate at 37° C., 5% CO2, overnight. • Dilute the compound to 3, 1, 0.33, 0.11, 0.037, 0.012, 0.004, 0.001 μM, keeping the DMSO concentration at 5%. Add 10 μl of diluted compound per well and incubate at 37° C., 5% CO2 for 1 hour. • Add 100 μl of 4% pre-warmed Paraformaldehyde (2% final), and incubate for 45 min at room temperature. • Remove paraformaldehyde solutions. Add 100 μl of ice-cold 0.1% Triton to fixed cells at room temperature for 30 min. • Wash twice with 150 μl PBS and incubate with 100 μl blocking buffer (1% BSA, in PBS) for 2˜3 hours at room temperature, seal the plate. • Wash once with PBS and incubate with 35 μl p-RSK (Thr359) (1:1000 dilution) overnight at 4° C. Seal the plate. • Wash twice with PBS and incubate for 1.5 hours at room temperature with 35 μl of Alexa Fluor® 488 donkey anti-rabbit IgG at a 1:1,000 dilution in antibody dilution buffer (0.1% BSA, in PBS). Cover plate in foil to keep out of light. • Wash twice with 150 μl PBS. Add 35 μl of 1.5 μM Propidium Iodide stock to each well to determine cell number, seal the plate. • Incubate at room temperature for 30 min. Load the plate into the Acumen Explorer and scan with the appropriate instrument settings. 4. Data Analysis
[formula] Note: • Percentagecompound well represents the positive percentage of cells treated by compound. • Percentagemin well represents the positive percentage of cells treated with 3 uM GDC0994. • Percentagemax well represents the positive percentage of cells without compounds treatment. 5. IC50 Value: determine IC50 with add-in software for Microsoft Excel, XLfit™ (version 2.0) from ID Business Solutions (Guildford, UK)

Structures are written as SMILES.

T1 sequence (P28482 whole entry): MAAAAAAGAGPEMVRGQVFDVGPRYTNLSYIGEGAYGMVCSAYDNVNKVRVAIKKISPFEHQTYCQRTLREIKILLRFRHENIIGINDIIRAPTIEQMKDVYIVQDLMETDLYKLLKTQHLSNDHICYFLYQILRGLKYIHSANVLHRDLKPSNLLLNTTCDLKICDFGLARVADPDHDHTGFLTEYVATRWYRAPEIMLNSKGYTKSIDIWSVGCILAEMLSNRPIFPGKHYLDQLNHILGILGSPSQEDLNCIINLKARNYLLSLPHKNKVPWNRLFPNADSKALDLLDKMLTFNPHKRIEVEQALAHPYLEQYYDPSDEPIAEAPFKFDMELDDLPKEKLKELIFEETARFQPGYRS

A word on the IC50: it is the concentration that inhibits the measured activity by half. Consider `Cn1nccc1Nc1nccc(-c2cc3n(c2)CCCn2c(CCc4ccccc4F)nnc2-3)n1` [Compound 1, 4-(3-(2-fluorophenethyl)-6,7-dihydro-5H-pyrrolo[1,2-a][1,2,4]triazolo[3,4-c][1,4]diazepin-10-yl)-N-(1-methyl-1H-pyrazol-5-yl)pyrimidin-2-amine], for which the results for the IC50 (at MAPK1(ERK2) enzyme; in experiment [1]) were at most 5 nM and over 100 nM, respectively.
Turning to `Cn1nccc1Nc1nccc(-c2cc3c4nnc(COc5ccccc5F)n4ccn3c2)n1` [Compound 2], the IC50 is at most 5 nM at MAPK1(ERK2) enzyme and at most 100 nM in experiment [1].
For `Cn1nccc1Nc1nccc(-c2cc3n(c2)CCn2c(COc4ccccc4F)nnc2-3)n1` [Compound 3] the same measures were at most 5 nM and at most 100 nM.
Consider `Cn1nccc1Nc1cc(-c2cc3n(c2)CCCn2c-3nnc2C2(C#N)CCC2)c(Cl)cn1` [Compound 4], for which the figures for the IC50 (at MAPK1(ERK2) enzyme; in experiment [1]) were at most 5 nM and over 100 nM, respectively.
The matching figures for `Cc1cnc(Nc2ccnn2C)nc1-c1cc2n(c1)CCn1c-2nnc1C1(C(F)(F)F)CCC1` [Compound 5]: at most 5 nM and over 100 nM.
For `Cc1cnc(Nc2ccnn2C)nc1-c1cc2n(c1)CCCn1c(Cc3ccccc3F)nnc1-2` [Compound 6] the same measures were 5 to 10 nM and at most 100 nM.
For the compound `Cc1cnc(Nc2ccnn2C)nc1-c1cc2n(c1)CCn1c(COc3ccccc3F)nnc1-2` [Compound 7], the figures for the IC50 (at MAPK1(ERK2) enzyme; in experiment [1]) were at most 5 nM and at most 100 nM, respectively.
For `Cn1nccc1Nc1nccc(-c2cc3n(c2)CCCn2c(Cc4ccccc4Cl)nnc2-3)n1` [Compound 8] the same measures were at most 5 nM and over 100 nM.
For `Cn1nccc1Nc1cc(-c2cc3n(c2)CCn2c(Cc4ccccc4F)nnc2-3)c(Cl)cn1` [Compound 9], the results for the IC50 (on MAPK1(ERK2) enzyme; in experiment [1]) were at most 5 nM and at most 100 nM, respectively.
For `Cc1nonc1Cc1nnc2n1CCCn1cc(-c3cc(Nc4ccnn4C)ncc3Cl)cc1-2` [Compound 10] the same measures were at most 5 nM and over 100 nM.
For `Cn1nccc1Nc1cc(-c2cc3n(c2)CCCn2c(COC(F)(F)F)nnc2-3)c(Cl)cn1` [Compound 11], the IC50 is at most 5 nM on MAPK1(ERK2) enzyme and at most 100 nM in experiment [1].
For `Cc1cnc(Nc2ccnn2C)nc1-c1cc2n(c1)CCCn1c-2nnc1C1(C(F)(F)F)CCC1` [Compound 12] the same measures were at most 5 nM and at most 100 nM.
The matching figures for `Cc1c(-c2ccnc(Nc3ccnn3C)n2)cn2c1-c1nnc(C3(C(F)(F)F)CCC3)n1CCC2` [Compound 13]: at most 5 nM and over 100 nM.
The matching figures for `C[C@@H](c1ccccc1)c1nnc2n1CCCn1cc(-c3cc(Nc4ccnn4C)ncc3Cl)cc1-2` [Compound 15]: 5 to 10 nM and at most 100 nM.
On to `Cc1c(-c2ccnc(Nc3ccnn3C)n2)cn2c1-c1nnc(COc3ccccc3F)n1CCC2` [Compound 16], for which the IC50 is at most 5 nM on MAPK1(ERK2) enzyme and at most 100 nM in experiment [1].
`Cc1cnc(Nc2ccnn2C)nc1-c1cc2n(c1)CCCn1c(COc3ccccc3F)nnc1-2` [Compound 17]: the IC50 on MAPK1(ERK2) enzyme is at most 5 nM; in experiment [1], at most 100 nM.
The matching figures for `Cn1nccc1Nc1cc(-c2cc3n(c2)CCCn2c-3nnc2C(O)c2ccccc2)c(Cl)cn1` (stereo not drawn) [Compound 18]: 5 to 10 nM and over 100 nM.
`Cn1nccc1Nc1nccc(-c2cc3n(c2)CCCn2c(CSc4ccccc4F)nnc2-3)n1` [Compound 19]: the values for the IC50 (at MAPK1(ERK2) enzyme; in experiment [1]) were at most 5 nM and at most 100 nM, respectively.
With `Cn1nccc1Nc1cc(-c2cc3n(c2)CCn2c-3nnc2C2(C(F)(F)F)CCC2)c(Cl)cn1` [Compound 20], the IC50 on MAPK1(ERK2) enzyme was at most 5 nM; in experiment [1] it was at most 100 nM.
The matching figures for `Cn1nccc1Nc1cc(-c2cc3n(c2)CCCn2c-3nnc2C2(C(F)(F)F)CC2)c(Cl)cn1` [Compound 21]: at most 5 nM and over 100 nM.
Take `Cn1nccc1Nc1cc(-c2cc3n(c2)CCCn2c-3nnc2C(C)(C)C(F)(F)F)c(Cl)cn1` [Compound 22]: the IC50 at MAPK1(ERK2) enzyme is at most 5 nM; in experiment [1] it was over 100 nM.
The matching figures for `Cn1nccc1Nc1cc(-c2cc3n(c2)CCn2c(COc4ccccc4F)nnc2-3)c(Cl)cn1` [Compound 23]: 5 to 10 nM and at most 100 nM.
The matching figures for `Cn1nccc1Nc1cc(-c2cc3n(c2)CCCn2c-3nnc2[C@H](O)C2CCCCC2)c(Cl)cn1` [Compound 24]: 5 to 10 nM and over 100 nM.
As for `Cn1nccc1Nc1cc(-c2cc3n(c2)CCCn2c(COCC(F)(F)F)nnc2-3)c(Cl)cn1` [Compound 25], the figures for the IC50 (on MAPK1(ERK2) enzyme; in experiment [1]) were at most 5 nM and over 100 nM, respectively.
`Cn1nccc1Nc1cc(-c2cc3n(c2)CCCn2c-3nnc2[C@](C)(O)C(F)(F)F)c(Cl)cn1` [Compound 26]: the IC50 at MAPK1(ERK2) enzyme is at most 5 nM; in experiment [1], at most 100 nM.
For `Cn1nccc1Nc1cc(-c2cc3n(c2)CCCn2c(Cc4ccccc4C#N)nnc2-3)c(Cl)cn1` [Compound 27] the same measures were at most 5 nM and at most 100 nM.
`Cc1cnc(Nc2ccnn2C)nc1-c1cc2n(c1)CCCn1c-2nnc1C1(C(F)(F)F)CCCC1` [Compound 28]: the results for the IC50 (at MAPK1(ERK2) enzyme; in experiment [1]) were at most 5 nM and at most 100 nM, respectively.
`Cc1c(-c2ccnc(Nc3ccnn3C)n2)cn2c1-c1nnc([C@H](C)Oc3ccccc3F)n1CCC2` [Compound 29]: the IC50 at MAPK1(ERK2) enzyme is at most 5 nM; in experiment [1], at most 100 nM.
For `Cn1nccc1Nc1cc(-c2cc3n(c2)CCCn2c-3nnc2C2(C(F)(F)F)CCC2)c(Cl)cn1` [Compound 30] the same measures were at most 5 nM and at most 100 nM.
The matching figures for `Cn1nccc1Nc1cc(-c2cc3n(c2)CCCn2c-3nnc2C2(C(F)(F)F)CCCC2)c(Cl)cn1` [Compound 31]: 5 to 10 nM and at most 100 nM.
For `Cn1nccc1Nc1cc(-c2cc3n(c2)CC(F)(F)Cn2c-3nnc2C2(C(F)F)COC2)c(Cl)cn1` [Compound 32] the same measures were at most 5 nM and at most 100 nM.
Take `Cn1nccc1Nc1cc(-c2cc3n(c2)CCCn2c(Cc4c(F)cccc4Cl)nnc2-3)c(Cl)cn1` [Compound 33]: the IC50 is over 10 nM on MAPK1(ERK2) enzyme and at most 100 nM in experiment [1].
Take `Cn1nccc1Nc1cc(-c2cc3n(c2)CCCn2c(COC4(C(F)(F)F)CCC4)nnc2-3)c(Cl)cn1` [Compound 34]: the IC50 on MAPK1(ERK2) enzyme was over 10 nM; in experiment [1], over 100 nM.
